Measured values published in ChEMBL document CHEMBL1201862, “PubChem BioAssay data set” (2004).
Calls of active or inactive are those of the source.

Columns and labels:
[1] = target: T1, Voltage-gated N-type calcium channel alpha-1B subunit/Amyloid beta A4 precursor protein-binding family A member 1 (Homo sapiens, UniProt Q00975+Q02410); assay type: protein assay
[2] = target: T1, Voltage-gated N-type calcium channel alpha-1B subunit/Amyloid beta A4 precursor protein-binding family A member 1; assay type: protein assay; remark: listed apart in the source
[3] = target: T2, Rac GTPase-activating protein 1 (Homo sapiens, UniProt Q9H0H5); test: blockers of MgcRacGAP-driven Rac1 GTP hydrolysis – biochemical, ADP Hunter fluorescence, primary and confirmatory, confirmation (AID 624330); assay type: functional
T2 sequence (Q9H0H5 whole entry): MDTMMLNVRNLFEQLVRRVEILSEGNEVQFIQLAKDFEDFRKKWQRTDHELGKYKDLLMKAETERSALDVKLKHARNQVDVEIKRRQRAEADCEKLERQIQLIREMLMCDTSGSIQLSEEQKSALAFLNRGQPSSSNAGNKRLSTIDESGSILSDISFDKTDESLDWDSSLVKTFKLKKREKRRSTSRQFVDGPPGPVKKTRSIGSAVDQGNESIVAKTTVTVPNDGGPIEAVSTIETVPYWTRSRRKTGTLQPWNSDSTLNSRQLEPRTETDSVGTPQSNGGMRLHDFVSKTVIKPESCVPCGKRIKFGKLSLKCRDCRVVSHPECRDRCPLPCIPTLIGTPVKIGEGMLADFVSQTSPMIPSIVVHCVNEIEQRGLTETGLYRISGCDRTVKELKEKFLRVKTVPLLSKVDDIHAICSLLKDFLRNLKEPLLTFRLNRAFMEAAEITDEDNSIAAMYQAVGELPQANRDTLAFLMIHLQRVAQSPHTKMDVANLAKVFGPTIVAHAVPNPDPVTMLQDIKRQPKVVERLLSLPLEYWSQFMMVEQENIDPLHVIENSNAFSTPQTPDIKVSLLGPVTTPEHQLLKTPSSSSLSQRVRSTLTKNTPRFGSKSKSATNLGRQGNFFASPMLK

[4] = target: G-protein coupled receptor 35 (Homo sapiens, UniProt Q9HC97); test: inhibition of zaprinast-stimulated GPR35 beta-arrestin translocation – imaging, U2OS, beta-arrestin-GFP, zaprinast agonist, primary screen (AID 2058); assay type: functional;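 also: antagonist potency meaning inhibition of agonist-induced arrestin redistribution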
Cytochrome P450 2D6 = Cytochrome P450 2D6 (Homo sapiens, UniProt P10635);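 also: CYP2D6 member of a cytochrome P450 panel assay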
Cytochrome P450 2C9 = Cytochrome P450 2C9 (Homo sapiens, UniProt P11712)
Cytochrome P450 3A4 = Cytochrome P450 3A4 (Homo sapiens, UniProt P08684);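 also: CYP3A4 tested as one member of a cytochrome P450 panel screen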
Cytochrome P450 1A2 = target: T3, Cytochrome P450 1A2 (Homo sapiens, UniProt P05177);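 also: PubChem cytochrome P450 panel assay, CYP1A2 panel member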
T3 sequence (P05177 whole entry): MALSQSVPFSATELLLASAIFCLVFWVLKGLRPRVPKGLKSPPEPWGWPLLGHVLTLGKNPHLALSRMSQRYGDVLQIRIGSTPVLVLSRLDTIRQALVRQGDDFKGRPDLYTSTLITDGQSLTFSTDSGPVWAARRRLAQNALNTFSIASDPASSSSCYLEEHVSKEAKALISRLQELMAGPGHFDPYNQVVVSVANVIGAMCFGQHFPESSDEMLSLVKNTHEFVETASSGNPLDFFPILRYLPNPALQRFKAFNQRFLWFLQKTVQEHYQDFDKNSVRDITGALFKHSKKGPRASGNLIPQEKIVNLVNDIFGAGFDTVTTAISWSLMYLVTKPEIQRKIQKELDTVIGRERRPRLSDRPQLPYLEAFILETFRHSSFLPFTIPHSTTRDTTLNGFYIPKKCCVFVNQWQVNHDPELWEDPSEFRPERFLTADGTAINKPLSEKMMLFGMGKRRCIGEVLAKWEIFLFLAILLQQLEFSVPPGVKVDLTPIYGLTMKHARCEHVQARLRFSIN

[5] = target: G-protein coupled receptor 55 (Homo sapiens, UniProt Q9Y2T6); test: inhibition of LPI-stimulated GPR55 beta-arrestin translocation – imaging, U2OS, beta-arrestin-GFP, LPI agonist, primary screen (AID 2013); assay type: functional;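 also: antagonist potency measured as reduced agonist-driven arrestin aggregation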
[6] = target: Eukaryotic translation initiation factor 4H (Homo sapiens, UniProt Q15056); test: inhibitors of translation initiation factor eIF4H – SAR follow-up (AID 435011); assay type: functional
[7] = target: Polyadenylate-binding protein 1 (Homo sapiens, UniProt P11940); test: PABP inhibition in translation initiation, SAR follow-up (AID 435018); assay type: functional
[8] = A Cell Based Secondary Assay To Explore Cytotoxicity of Compounds that Sensitize Mycobacterium Tuberculosis to Beta-Lactam Antibiotics.; assay type: functional
[9] = viability of PTEN-deleted HCT116 cells – cell-based, HCT116 PTEN knockout, dose response (AID 1047); assay type: functional;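 also: HCT116 colon tumor cells with PTEN knocked out; cells exposed to compound for 60 hours before readout; potency for loss of cell viability measured by luminescence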
[10] = target: T4, Calpain-2 catalytic subunit (Sus scrofa, UniProt P43367); test: m-calpain protease blockers, concentration series – biochemical, fluorogenic peptide substrate, dose response (AID 1420); assay type: functional
T4 sequence (P43367 whole entry): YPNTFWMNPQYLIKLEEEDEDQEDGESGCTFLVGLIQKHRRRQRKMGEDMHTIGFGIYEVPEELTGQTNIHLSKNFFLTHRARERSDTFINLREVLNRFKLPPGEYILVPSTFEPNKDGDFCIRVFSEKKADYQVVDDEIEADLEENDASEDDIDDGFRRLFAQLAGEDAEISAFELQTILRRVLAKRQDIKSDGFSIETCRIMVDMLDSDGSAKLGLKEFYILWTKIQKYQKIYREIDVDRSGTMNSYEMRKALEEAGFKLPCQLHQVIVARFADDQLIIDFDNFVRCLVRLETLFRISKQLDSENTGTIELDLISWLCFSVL

SUMO-activating enzyme = SUMO-activating enzyme (Homo sapiens, UniProt Q9UBT2); test: blockers of UBC9-mediated SUMO conjugation – biochemical, AlphaScreen, SUMOylation inhibitor project, confirmation (AID 2018); assay type: functional
[11] = viability of HCT116 lacking mutant beta-catenin – cell-based, human colon tumor, dose response (AID 1045); assay type: functional;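 also: HCT116 colon tumor cells with beta catenin knocked out; cells exposed to compound for 60 hours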
Trypsin = Trypsin (Sus scrofa, UniProt P00761); test: trypsin protease activity blockade – biochemical, quenched peptide fluorescence, cherry-pick, selectivity assay for Rce1 protease inhibitor project, dose response (AID 488789)
[12] = viability of uninfected HEp-2 cells – cell-based, HTS, cytotoxicity control for RSV inhibitor project, dose response (AID 2410); assay type: functional; settings: human respiratory syncytial virus
CAAX prenyl protease 2 = target: T5, CAAX prenyl protease 2 (Homo sapiens, UniProt Q9Y256); test: inhibition of Ras-converting CAAX protease Rce1 – biochemical, yeast membranes, quenched-peptide fluorescence, cherry-pick, dose response (AID 588849)
T5 sequence (Q9Y256 whole entry): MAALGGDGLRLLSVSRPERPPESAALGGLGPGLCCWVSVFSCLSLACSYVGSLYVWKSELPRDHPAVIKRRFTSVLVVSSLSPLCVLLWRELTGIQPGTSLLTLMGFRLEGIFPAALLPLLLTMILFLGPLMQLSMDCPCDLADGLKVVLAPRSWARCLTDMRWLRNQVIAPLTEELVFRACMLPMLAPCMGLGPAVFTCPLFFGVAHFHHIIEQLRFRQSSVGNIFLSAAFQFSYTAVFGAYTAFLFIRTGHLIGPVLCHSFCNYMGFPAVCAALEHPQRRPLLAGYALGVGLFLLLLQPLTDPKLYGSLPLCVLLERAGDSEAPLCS

[13] = target: T6, Type-1 angiotensin II receptor (Homo sapiens, UniProt P30556); test: agonist activity at AGTR1 – cell-based, uHTS hits, selectivity assay for APJ receptor agonist project, dose response (AID 488865); assay type: functional;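 also: beta-arrestin recruitment to AT1 measured by enzyme fragment complementation luminescence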
T6 sequence (P30556 whole entry): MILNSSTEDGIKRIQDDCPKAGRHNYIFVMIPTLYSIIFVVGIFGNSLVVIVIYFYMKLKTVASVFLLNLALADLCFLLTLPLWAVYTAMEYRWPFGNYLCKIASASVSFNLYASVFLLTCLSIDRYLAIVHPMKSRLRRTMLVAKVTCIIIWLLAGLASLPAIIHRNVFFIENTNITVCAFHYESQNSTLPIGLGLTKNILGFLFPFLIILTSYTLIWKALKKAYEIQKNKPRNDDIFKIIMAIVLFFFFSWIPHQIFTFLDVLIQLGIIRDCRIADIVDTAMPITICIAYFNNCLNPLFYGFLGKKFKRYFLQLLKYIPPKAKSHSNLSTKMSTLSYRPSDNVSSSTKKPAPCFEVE

Bcl-2-related protein A1 = target: T7, Bcl-2-related protein A1 (Mus musculus, UniProt Q07440); assay type: functional;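 also: confirmatory dose–response counterscreen on Bfl-1, used to check hits from a UBC13 polyubiquitin inhibitor campaign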
T7 sequence (Q07440 whole entry): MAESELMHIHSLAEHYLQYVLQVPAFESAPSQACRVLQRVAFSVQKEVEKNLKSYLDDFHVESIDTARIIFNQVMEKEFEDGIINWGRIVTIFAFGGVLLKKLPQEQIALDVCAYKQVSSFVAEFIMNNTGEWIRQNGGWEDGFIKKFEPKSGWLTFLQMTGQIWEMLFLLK

[14] = target: T8, Ubiquitin-conjugating enzyme E2 N (Homo sapiens, UniProt P61088); assay type: functional
T8 sequence (P61088 whole entry): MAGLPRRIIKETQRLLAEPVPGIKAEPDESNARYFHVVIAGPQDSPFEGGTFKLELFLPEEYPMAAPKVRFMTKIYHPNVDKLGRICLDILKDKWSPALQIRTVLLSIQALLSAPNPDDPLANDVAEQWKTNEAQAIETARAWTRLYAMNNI

[15] = target: T8, Ubiquitin-conjugating enzyme E2 N; assay type: functional; remark: listed apart in the source
Streptokinase A = target: T9, Streptokinase A (Streptococcus pyogenes serotype M1, UniProt P10520); test: viability-normalized secreted streptokinase activity reduction – plasminogen activation absorbance, OD405, dose response (AID 1914); assay type: functional, Streptococcus pyogenes M1 GAS;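 also: secreted streptokinase activity via plasminogen activation per viability signal from cell pellet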
T9 sequence (P10520 whole entry): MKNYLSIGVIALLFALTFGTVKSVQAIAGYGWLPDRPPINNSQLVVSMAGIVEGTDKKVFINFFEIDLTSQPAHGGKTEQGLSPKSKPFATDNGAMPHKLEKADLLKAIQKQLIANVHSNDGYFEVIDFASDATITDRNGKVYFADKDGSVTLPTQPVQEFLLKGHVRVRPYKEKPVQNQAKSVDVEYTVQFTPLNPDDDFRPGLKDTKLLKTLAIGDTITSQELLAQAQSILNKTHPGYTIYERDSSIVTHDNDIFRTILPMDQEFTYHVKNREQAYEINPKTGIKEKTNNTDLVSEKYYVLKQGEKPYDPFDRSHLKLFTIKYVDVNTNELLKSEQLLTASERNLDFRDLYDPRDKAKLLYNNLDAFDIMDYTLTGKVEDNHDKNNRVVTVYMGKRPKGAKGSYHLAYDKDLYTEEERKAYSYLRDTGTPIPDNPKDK

Streptococcus = test: GAS UMAA2166 growth inhibition – luminescence, BacTiterGlo, counter-screen for streptokinase expression inhibitor project, dose response (AID 1915); assay type: functional, organism-based;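 also: potency for reduction of bacterial viability or growth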
[16] = system: Streptococcus sp. 'group A'; test: Streptococcus pyogenes SK(-)GAS viability under kanamycin – luminescence, BacTiterGlo, confirmation, counter-screen for streptokinase expression inhibitor project, dose response (AID 1900); assay type: functional, organism-based
Hexokinase = Hexokinase (Trypanosoma brucei, UniProt Q38C41); test: Confirmation assay for inhibitors of Trypanosoma brucei hexokinase 1-Analogue-first series. [Related pubchem assays (depositor defined):AID1430, AID1632, AID2516, AID2560, AID2579, AID2600, AID449725, AID492951]; assay type: functional
[17] = target: Glucose-6-phosphate 1-dehydrogenase (Homo sapiens, UniProt P11413); test: inhibition of Homo sapiens G6PD, dose series – biochemical, fluorescence, selectivity assay for P. falciparum G6PD inhibitor project, dose response (AID 504792); assay type: functional
[18] = viability loss in HeLa cells – cytotoxicity control for MgcRacGAP inhibitor project, dose response (AID 624300); assay type: functional

Sequence of G-protein coupled receptor 55 (Q9Y2T6 whole entry): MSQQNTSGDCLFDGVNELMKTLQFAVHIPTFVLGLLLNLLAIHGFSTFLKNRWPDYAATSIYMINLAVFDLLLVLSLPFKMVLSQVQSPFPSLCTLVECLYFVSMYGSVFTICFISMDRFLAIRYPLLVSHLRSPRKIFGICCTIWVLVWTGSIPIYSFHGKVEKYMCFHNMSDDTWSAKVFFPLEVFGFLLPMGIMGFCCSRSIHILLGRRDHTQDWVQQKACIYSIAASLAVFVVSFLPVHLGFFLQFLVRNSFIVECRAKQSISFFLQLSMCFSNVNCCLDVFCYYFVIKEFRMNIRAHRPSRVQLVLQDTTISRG
Sequence of Polyadenylate-binding protein 1 (P11940 whole entry): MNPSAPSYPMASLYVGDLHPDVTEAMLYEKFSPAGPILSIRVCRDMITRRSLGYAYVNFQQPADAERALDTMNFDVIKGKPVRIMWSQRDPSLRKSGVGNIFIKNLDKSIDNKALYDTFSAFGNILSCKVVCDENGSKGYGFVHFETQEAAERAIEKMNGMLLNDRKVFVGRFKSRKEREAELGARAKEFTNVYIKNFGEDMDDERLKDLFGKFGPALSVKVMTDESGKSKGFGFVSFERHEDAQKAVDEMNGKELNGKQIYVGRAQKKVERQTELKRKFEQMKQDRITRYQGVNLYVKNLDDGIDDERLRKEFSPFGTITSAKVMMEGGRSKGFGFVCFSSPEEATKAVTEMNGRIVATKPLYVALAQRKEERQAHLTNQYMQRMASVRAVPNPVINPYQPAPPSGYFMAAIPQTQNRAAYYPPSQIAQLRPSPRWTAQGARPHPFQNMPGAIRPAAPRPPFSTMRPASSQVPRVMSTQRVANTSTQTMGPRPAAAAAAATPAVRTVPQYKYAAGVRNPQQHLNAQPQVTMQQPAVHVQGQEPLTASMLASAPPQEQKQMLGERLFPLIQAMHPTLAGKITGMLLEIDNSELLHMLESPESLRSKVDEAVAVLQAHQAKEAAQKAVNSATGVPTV
T1 sequence (Q00975 whole entry): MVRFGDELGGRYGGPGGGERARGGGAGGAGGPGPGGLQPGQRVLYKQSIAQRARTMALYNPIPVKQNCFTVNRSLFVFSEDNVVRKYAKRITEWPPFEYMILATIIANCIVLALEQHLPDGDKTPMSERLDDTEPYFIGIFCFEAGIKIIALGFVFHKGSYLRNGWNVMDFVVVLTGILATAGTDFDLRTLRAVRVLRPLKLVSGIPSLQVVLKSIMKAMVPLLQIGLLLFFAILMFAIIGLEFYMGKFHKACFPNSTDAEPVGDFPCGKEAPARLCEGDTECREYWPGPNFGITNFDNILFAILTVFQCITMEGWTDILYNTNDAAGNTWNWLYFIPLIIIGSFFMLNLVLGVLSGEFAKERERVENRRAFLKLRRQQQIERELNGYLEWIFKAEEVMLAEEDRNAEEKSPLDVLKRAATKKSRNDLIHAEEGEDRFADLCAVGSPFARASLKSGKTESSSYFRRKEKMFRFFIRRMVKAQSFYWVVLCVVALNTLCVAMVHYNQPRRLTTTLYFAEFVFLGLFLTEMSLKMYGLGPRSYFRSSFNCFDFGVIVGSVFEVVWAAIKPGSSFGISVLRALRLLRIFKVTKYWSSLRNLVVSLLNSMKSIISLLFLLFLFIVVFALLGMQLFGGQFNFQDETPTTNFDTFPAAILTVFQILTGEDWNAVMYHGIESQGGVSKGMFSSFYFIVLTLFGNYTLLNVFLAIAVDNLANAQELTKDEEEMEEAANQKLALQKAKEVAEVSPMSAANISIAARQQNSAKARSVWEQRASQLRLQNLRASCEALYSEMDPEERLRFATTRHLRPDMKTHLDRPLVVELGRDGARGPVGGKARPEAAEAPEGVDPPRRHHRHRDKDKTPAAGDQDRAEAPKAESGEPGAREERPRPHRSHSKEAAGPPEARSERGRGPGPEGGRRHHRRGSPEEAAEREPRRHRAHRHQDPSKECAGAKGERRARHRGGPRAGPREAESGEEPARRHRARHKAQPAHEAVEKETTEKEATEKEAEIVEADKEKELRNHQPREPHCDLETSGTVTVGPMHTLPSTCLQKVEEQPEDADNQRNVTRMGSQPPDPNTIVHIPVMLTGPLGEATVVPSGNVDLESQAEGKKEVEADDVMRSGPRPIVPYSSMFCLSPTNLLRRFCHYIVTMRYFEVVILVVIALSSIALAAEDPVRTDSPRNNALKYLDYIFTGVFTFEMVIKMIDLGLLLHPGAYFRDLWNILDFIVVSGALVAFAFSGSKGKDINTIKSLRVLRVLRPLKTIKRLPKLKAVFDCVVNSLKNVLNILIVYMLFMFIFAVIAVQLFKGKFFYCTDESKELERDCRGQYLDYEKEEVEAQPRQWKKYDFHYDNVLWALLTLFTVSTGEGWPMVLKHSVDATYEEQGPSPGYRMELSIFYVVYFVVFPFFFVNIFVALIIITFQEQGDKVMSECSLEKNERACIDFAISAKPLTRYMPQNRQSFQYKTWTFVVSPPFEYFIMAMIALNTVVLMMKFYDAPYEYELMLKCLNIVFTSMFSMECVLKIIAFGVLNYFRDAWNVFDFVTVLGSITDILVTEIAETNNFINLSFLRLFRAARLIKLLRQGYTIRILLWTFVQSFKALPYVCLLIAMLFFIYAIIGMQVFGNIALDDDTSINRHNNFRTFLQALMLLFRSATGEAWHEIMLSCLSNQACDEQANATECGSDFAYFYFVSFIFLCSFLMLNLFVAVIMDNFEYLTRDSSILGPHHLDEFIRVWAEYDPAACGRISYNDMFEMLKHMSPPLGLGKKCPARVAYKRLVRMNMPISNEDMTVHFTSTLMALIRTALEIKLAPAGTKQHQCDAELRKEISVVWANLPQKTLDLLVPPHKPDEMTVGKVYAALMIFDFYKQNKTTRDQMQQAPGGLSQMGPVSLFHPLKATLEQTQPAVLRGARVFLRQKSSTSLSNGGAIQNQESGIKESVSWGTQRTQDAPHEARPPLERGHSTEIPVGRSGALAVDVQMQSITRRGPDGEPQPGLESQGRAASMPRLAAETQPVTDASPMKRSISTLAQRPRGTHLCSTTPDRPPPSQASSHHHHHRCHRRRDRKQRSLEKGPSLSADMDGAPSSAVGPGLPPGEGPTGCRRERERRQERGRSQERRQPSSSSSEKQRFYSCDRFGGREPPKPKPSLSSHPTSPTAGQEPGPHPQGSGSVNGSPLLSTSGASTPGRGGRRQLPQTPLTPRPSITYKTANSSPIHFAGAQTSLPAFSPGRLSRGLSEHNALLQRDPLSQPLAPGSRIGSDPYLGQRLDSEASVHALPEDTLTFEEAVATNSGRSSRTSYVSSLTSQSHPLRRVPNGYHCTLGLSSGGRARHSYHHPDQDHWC
T1 sequence (Q02410 whole entry): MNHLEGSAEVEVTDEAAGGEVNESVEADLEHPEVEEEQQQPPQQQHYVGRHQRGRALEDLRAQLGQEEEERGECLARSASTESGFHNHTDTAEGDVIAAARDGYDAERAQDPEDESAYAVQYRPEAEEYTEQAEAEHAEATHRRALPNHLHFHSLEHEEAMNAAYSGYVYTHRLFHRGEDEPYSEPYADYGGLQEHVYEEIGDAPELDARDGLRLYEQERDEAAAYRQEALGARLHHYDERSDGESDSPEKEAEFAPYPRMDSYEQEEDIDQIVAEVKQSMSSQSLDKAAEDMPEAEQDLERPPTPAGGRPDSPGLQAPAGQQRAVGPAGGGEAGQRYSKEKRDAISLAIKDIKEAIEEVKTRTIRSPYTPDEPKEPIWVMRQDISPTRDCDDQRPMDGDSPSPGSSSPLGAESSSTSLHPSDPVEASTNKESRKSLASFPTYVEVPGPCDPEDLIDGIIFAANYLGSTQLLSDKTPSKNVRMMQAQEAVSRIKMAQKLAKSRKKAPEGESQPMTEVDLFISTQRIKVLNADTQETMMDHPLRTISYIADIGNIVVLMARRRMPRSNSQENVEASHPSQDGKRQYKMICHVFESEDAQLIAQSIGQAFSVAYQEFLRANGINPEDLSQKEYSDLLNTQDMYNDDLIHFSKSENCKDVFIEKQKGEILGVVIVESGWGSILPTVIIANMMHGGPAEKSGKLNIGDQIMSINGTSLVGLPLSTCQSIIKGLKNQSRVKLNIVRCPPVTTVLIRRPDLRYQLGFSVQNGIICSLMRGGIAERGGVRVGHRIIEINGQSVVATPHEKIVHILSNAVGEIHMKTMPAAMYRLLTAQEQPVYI
Sequence of Hexokinase (Q38C41 whole entry): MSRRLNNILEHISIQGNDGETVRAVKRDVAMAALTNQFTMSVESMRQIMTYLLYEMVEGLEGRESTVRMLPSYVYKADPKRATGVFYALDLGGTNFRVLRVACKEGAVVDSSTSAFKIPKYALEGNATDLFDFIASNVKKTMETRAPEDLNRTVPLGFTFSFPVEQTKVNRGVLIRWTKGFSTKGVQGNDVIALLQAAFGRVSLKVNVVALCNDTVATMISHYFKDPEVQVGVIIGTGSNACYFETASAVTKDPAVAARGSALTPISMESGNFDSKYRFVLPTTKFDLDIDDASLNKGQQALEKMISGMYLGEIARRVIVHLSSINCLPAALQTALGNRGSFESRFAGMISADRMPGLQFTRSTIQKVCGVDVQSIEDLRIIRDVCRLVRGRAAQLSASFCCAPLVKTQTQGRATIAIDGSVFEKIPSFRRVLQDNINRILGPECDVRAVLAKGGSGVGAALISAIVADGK

## Cc1cccc(NC(=S)NCc2ccco2)n1
[1]
  IC50: 6.94 µM (active)
[2]
  IC50: > 50 µM (inactive)

## N#C/C(=C/c1ccc(N2CCOCC2)o1)c1nc2ccccc2[nH]1
[3]
  IC50: 20.4 µM (active)
[4]
  IC50: 2.41 µM (active)

## NC1=C(c2nc(-c3ccc(F)cc3)cs2)C(=O)CN1CCCN1CCOCC1
Cytochrome P450 2D6
  AC50: 28.2 µM (inconclusive)
Cytochrome P450 2C9
  AC50: 28.2 µM (inconclusive)
Cytochrome P450 3A4
  AC50: 10 µM (inconclusive)
Cytochrome P450 1A2
  AC50: 15.8 µM (inconclusive)
[5]
  IC50: 9.02 µM (active)

## O=C(CSc1ccc(-c2ccco2)nn1)NCc1ccccc1
[6]
  IC50: 57 µM (active)
[7]
  IC50: > 100 µM (inactive)

## COc1ccc(N=C2SC(C(=O)Nc3ccc(F)cc3)CC(=O)N2C)cc1 (centres undefined)
[6]
  IC50: > 100 µM (inactive)
[7]
  IC50: > 100 µM (inactive)

## O=C(Nc1nnc(-c2ccccc2SCc2ccccc2F)s1)Nc1ccccc1F
[8]
  CC50: 29.5 µM (active)
[9]
  EC50: 5.89 µM (active)
[10]
  IC50: > 50 µM (not active)
SUMO-activating enzyme
  IC50: 41.1 µM (active)
[11]
  EC50: 5.32 µM (active)

## NC(=O)c1sc2nc(N3CCCCC3)c3c(c2c1N)CCCC3
Trypsin
  AC50: 3.58 µM (active)
[12]
  CC50: 15.6 µM (active)
CAAX prenyl protease 2
  AC50: 7.04 µM (active)

## CCOc1cc2[nH]c(=S)n(CCCC(=O)NCc3ccccn3)c(=O)c2cc1OCC
[13]
  EC50: > 100 µM (inactive)

## O=C(NCCCN1CCN(c2ccc(F)cc2)CC1)C1CCCN(c2ncnc3c2nc2n3CCCCC2)C1 (centres undefined)
Bcl-2-related protein A1
  IC50: > 20 µM (inactive)
[14]
  IC50: 3.64 µM (active)
[15]
  IC50: 8.08 µM (active)

## c1ccc(-c2noc(-c3ccccc3-c3ccccc3)n2)cc1
Streptokinase A
  EC50: 21.5 µM (active)
Streptococcus
  EC50: > 150 µM (not active)
[16]
  EC50: 11.8 µM (active)
[5]
  IC50: 6.09 µM (active)

## O=c1c2cc(F)ccc2sn1-c1ccccc1Cl
Hexokinase
  IC50: 2.33 µM (active)
[17]
  IC50: 15.9 µM (active)
[3]
  IC50: 35 µM (active)
[18]
  CC50: 71.9 µM (active)

## O=C(Nc1cc(Cl)ccc1C(=O)O)c1ccc(-c2cccs2)cc1
Hexokinase
  IC50: > 25 µM (inactive)
